Data: PMC3366684, “Studies on the Synthesis of Derivatives of Marine-Derived Bostrycin and Their Structure-Activity Relationship against Tumor Cells” (Marine Drugs, 2012)

Columns and labels:
MCF-7 cells = assay: MTT cytotoxicity assay, MCF-7; format: cell-based, human; settings: MCF7; human breast cancer cell line; MTT, 48 h exposure; mean ± SD, three independent experiments
Method: (§1) All compounds were evaluated for their in vitro cytotoxic activity against five human cancer cell lines including human breast MCF-7, human breast MDA-MB-435, human lung A549, human liver HepG2 and human colon HCT-116, and compared with their effects on the immortalized human breast epithelial cell line MCF-10A by MTT assay using epirubicin (an anticancer drug used widely in the clinic) as positive control.
(§2) MCF-7, MDA-MB-435, A549, HepG2 and HCT-116 cells were cultured in Dulbecco’s modification Eagle’s medium (DMEM, Invitrogen, Carlsbad, CA, USA) supplemented with 10% fetal bovine serum (FBS, Hyclone, Logan, UT, USA), 2 mM L-glutamine, 100 μg/mL streptomycin and 100 U/mL penicillin (Invitrogen). MCF-10A cells were cultured in keratinocyte serum free medium (KSFM) supplemented with 0.1–0.2 ng/mL human recombinant epidermal growth factor and 20–30 μg/mL bovine pituitary extract (Invitrogen). The cells were incubated at 37 °C in a humidified atmosphere with 5% CO2.
(§3) Cells were harvested during logarithmic growth phase and seeded in 96-well plates at a density of 1 × 10^4 cells/mL, and cultured at 37 °C in a humidified incubator (5% CO2) for 24 h, followed by exposure to various concentrations of compounds tested for 48 h. Subsequently 20 μL of MTT (Genview, Houston, TX, USA) solution (5 mg/mL) was added to each well and mixed, the cells were then incubated for an additional 4 h. Culture supernatant was moved, 150 μL of DMSO (Sangon Biotech, Shanghai, China) was added to each well to fully dissolve the MTT-formazan crystals. Cell growth inhibition was determined by measuring the absorbance (Abs) at λ = 570 nm using a microplate reader and calculated according to the following equation:
(§4) Growth inhibition = (1 − OD of treated cells/OD of control cells) × 100%
(§5) The half maximal inhibitory concentrations (IC50) were obtained from liner regression analysis of the concentration-response curves plotted for each tested compound.

A549 cells = assay: MTT cytotoxicity assay, A549; format: cell-based, human; settings: A549; human lung cancer cell line; MTT, 48 h exposure; mean ± SD, three independent experiments
Method: as §1, §2, §3, §4, §5

HepG2 cells = assay: MTT cytotoxicity assay, HepG2; format: cell-based, human; settings: Homo sapiens, HepG2, 48 h, human liver cancer cell line; MTT, 48 h exposure; mean ± SD, three independent experiments
Method: as §1, §2, §3, §4, §5

HCT-116 cells = assay: MTT cytotoxicity assay, HCT-116; format: cell-based, human; settings: HCT-116; human colon cancer cell line; MTT, 48 h exposure; mean ± SD, three independent experiments
Method: as §1, §2, §3, §4, §5

MDA-MB-435 cells = assay: MTT cytotoxicity assay, MDA-MB-435; format: cell-based, human; settings: MDA-MB-435; human breast cancer cell line; MTT, 48 h exposure; mean ± SD, three independent experiments
Method: as §1, §2, §3, §4, §5

[1] = MTT cytotoxicity assay, MCF-10A; format: cell-based; settings: MCF-10A cells, immortalized human breast epithelial cell line, 48 h exposure, mean ± SD, three independent experiments
Method: as §1, §2, §3, §4, §5

SMILES	IC50 (MCF-7 cells) [µM]	IC50 (A549 cells) [µM]	melting point [°C]	IC50 (HepG2 cells) [µM]	IC50 (HCT-116 cells) [µM]	IC50 (MDA-MB-435 cells) [µM]	IC50 at 48 h [1] [µM]
C[C@]1(O)Cc2c(O)c3c(c(O)c2[C@H](O)[C@H]1O)C(=O)C=C(NCc1ccc(F)cc1)C3=O [Compound 19, 6-(p-Fluorobenzylamino)-6-demethoxybostrycin]	7.94 ± 0.26	6.25 ± 0.43	147 to 148	> 50	4.92 ± 0.38	7.86 ± 1.2	7.5 ± 0.69
CCCCCCNC1=CC(=O)c2c(O)c3c(c(O)c2C1=O)C[C@](C)(O)[C@H](O)[C@H]3O [Compound 12, 6-(n-Hexylamino)-6-demethoxybostrycin]	4.87 ± 0.23	3.74 ± 0.67	203 to 204	12.9 ± 0.96	4.06 ± 0.65	4.25 ± 0.75	–
C[C@]1(O)Cc2c(O)c3c(c(O)c2[C@H](O)[C@H]1O)C(=O)C=C(NCCOCCO)C3=O [Compound 14, 6-[(2″-Hydroxyethoxy)ethylamino]-6-demethoxybostrycin]	> 50	> 50	112 to 113	> 50	> 50	> 50	> 50
C[C@]1(O)Cc2c(O)c3c(c(O)c2[C@H](O)[C@H]1O)C(=O)C=C(NCCO)C3=O [Compound 13, 6-(2′-Hydroxyethylamino)-6-demethoxybostrycin]	35.6 ± 1.4	> 50	202 to 203	32.2 ± 2.43	35.9 ± 1.13	> 50	> 50
COc1ccc(CNC2=CC(=O)c3c(O)c4c(c(O)c3C2=O)C[C@](C)(O)[C@H](O)[C@H]4O)cc1 [Compound 18, 6-(p-Methoxybenzylamino)-6-demethoxybostrycin]	9.17 ± 0.28	15.2 ± 0.42	149 to 150	> 50	13.6 ± 1.85	25.6 ± 1.71	27.7 ± 0.93
C[C@]1(O)Cc2c(O)c3c(c(O)c2[C@H](O)[C@H]1O)C(=O)C(SCCCO)=C(SCCCO)C3=O [Compound 27, 6,7-bis(3′-Hydroxy-n-propylthio)-6-demethoxybostrycin]	6.01 ± 0.39	7.31 ± 0.58	150 to 151	3.18 ± 0.75	3.08 ± 0.35	3.19 ± 0.15	–
COC1=CC(=O)c2c(O)c3c(c(O)c2C1=O)C[C@](C)(O)[C@H](O)C3 [Compound 2, Deoxybostrycin]	2.69 ± 0.31	4.49 ± 0.13	224 to 225	9.99 ± 0.55	5.69 ± 0.25	3.19 ± 0.92	13.8 ± 0.76
CC1SC2=C(SC1C)C(=O)c1c(O)c3c(c(O)c1C2=O)C[C@](C)(O)[C@H](O)[C@H]3O (some centres unmarked) [Compound 29, 6,7-(Butan-2′,3′-yl-dithio)-6-demethoxybostrycin]	3.18 ± 0.22	4.06 ± 0.35	146 to 147	2.55 ± 0.55	0.73 ± 0.02	0.55 ± 0.11	–
CC1CCN(C2=CC(=O)c3c(O)c4c(c(O)c3C2=O)C[C@](C)(O)[C@H](O)[C@H]4O)CC1 [Compound 21, 6-(4′-Methylpiperidin-1-yl)-6-demethoxybostrycin]	4.62 ± 0.44	3.06 ± 0.46	162 to 163	6.09 ± 1.14	3.25 ± 0.67	6.38 ± 0.47	–
COc1cccc2c1C(=O)c1c(O)c3c(c(O)c1C2=O)C[C@@](O)(C(=O)CO)C[C@@H]3O[C@H]1C[C@H](N)[C@@H](O)[C@H](C)O1 [epirubicin, reference compound]	0.96 ± 0.08	0.61 ± 0.05	–	0.96 ± 0.02	0.48 ± 0.03	0.56 ± 0.06	0.48 ± 0.08
C[C@]1(O)Cc2c(O)c3c(c(O)c2[C@H](O)[C@H]1O)C(=O)C(SCCO)=C(SCCO)C3=O [Compound 26, 6,7-bis(2′-Hydroxyethylthio)-6-demethoxybostrycin]	14.4 ± 0.42	26.1 ± 3.15	156 to 158	22.7 ± 1.95	12 ± 1.53	13.3 ± 0.2	–
